Test system: PANC-1 cells
Experiment: WST1 cell proliferation assay, PANC-1 cells
Type: cell-based, human
Conditions: 10% FCS-DMEM
Procedure: PDA cell line (PANC-1 or HS766T) or patient cancer cells (PaCa9) were trypsinized with 1% trypsin in Hank's Balanced Salt Solution (HBSS), counted, washed, and resuspended in serum free AIM media (ThermoFisher Scientific, Waltham, MA) or complete Dulbecco's Modified Eagle Medium (DMEM) supplemented with 10% fetal bovine serum, […], 100 U/ml of penicillin G, and […] of streptomycin. Cells at a concentration of 2-4×10^4 cells/well in 100 μl culture medium were seeded in triplicate in 96 well plates, then cultured in a humidified incubator at 37° C. and 5% CO2. On the next day, cell supernatant was discarded and compounds (e.g., drugs) of the present disclosure in 200 μl medium were added with the concentrations indicated in the following Examples. After 72 hours of culture, cell proliferation reagent WST1 (20 μl/well, Sigma Aldrich Inc, St. Louis, MO) were added and plates were read using an ELISA reader at 2 hours and 4 hours under the wavelength of 450 nm. The measured absorbance (OD value) was recorded and graphed and statistically analyzed using GraphPad Prism 8, t-test, or t-test with Bonferroni correction.

COc1ccc2c(c1OCc1ccccc1)C[C@@H](C(=O)O)N(C(=O)C(c1ccccc1)c1ccccc1)C2 [EMA401]
cell proliferation, WST1 absorbance (OD value, 450 nm), mean (EMA 10 μM, Table 1, 2 h, control 3.618): 2.976
cell proliferation, WST1 absorbance (OD value, 450 nm), mean (EMA 50 μM, Table 1, 2 h, control 3.618): 2.957
cell proliferation, WST1 absorbance (OD value, 450 nm), mean (EMA401 10 μM, Table 5A, 2×10^4 cells per well, Medium/DMSO 3.348): 2.872
cell proliferation, WST1 absorbance (OD value, 450 nm), mean (EMA401 50 μM, Table 5A, 2×10^4 cells per well, Medium/DMSO 3.348): 0.691

— patent publication US12527785B2, “Renin-angiotensin-aldosterone system (RAAS) inhibitors in the treatment of pancreatic ductal carcinoma” (OCHSNER CLINIC FOUNDATION, priority 2023, dated 2026)
